Results reported in patent publication US4868299A, “Antibacterially active pyrido-benzothiazine derivatives with long-term action” (Mediolanum Farmaceutici Srl, priority 1986, dated 1989).
Converted amounts (≈) assume the structure as drawn. Like-named read-outs stand apart in the source and are kept apart here.

Columns and labels:
Assay in all cases: in-vitro antibacterial activity, MIC by agar dilution (multipoint inoculator)
Assay type in all cases: cell-based
Staphylococcus 7 = details: for MIC: read-out: Minimum Inhibiting Concentration (MIC)
Method: (§1) The antibacterial activity of the compounds according to the invention was determined "in vitro" on pathogenic strains of recent clinical isolation by testing agar dilutions using a multipoint inoculator (Denley Techn. Ltd., England).
(§2) The culture medium used is isosensitest agar (Oxoid), in a quantity of 20 ml in a Petri capsule. The compounds to be tested were dissolved at various dilutions and incorporated in agar.
(§3) The bacterial inoculum, originating from an overnight broth and containing 10^5 colony-forming units per point, was inoculated by a multipoint inoculator. The bacterial growth was evaluated after 18 hours of incubation at 37° C.
(§4) For comparison purposes, the results relative to compound (XIII) and to nalidixic acid are also reported.

Citrobacter 120 = details: for MIC: read-out: Minimum Inhibiting Concentration (MIC)
Method: as §1, §2, §3, §4

Pseudomonas 19 = details: for MIC: read-out: Minimum Inhibiting Concentration (MIC)
Method: as §1, §2, §3, §4

Pseudomonas 22437 = details: 18 hours at 37° C; for MIC: read-out: Minimum Inhibiting Concentration (MIC)
Method: as §1, §2, §3, §4

Escherichia 963 = details: for MIC: read-out: Minimum Inhibiting Concentration (MIC)
Method: as §1, §2, §3, §4

Proteus 25 = details: for MIC: read-out: Minimum Inhibiting Concentration (MIC)
Method: as §1, §2, §3, §4

Enterobacter 2653 = details: for MIC: read-out: Minimum Inhibiting Concentration (MIC)
Method: as §1, §2, §3, §4

Serratia 9 = details: for MIC: read-out: Minimum Inhibiting Concentration (MIC)
Method: as §1, §2, §3, §4

Escherichia 15 = details: 18 hours at 37° C, read-out: Minimum Inhibiting Concentration (MIC)
Method: as §1, §2, §3, §4

Proteus 966 = details: for MIC: read-out: Minimum Inhibiting Concentration (MIC)
Method: as §1, §2, §3, §4

Enterobacter 041 = details: for MIC: read-out: Minimum Inhibiting Concentration (MIC)
Method: as §1, §2, §3, §4

Staphylococcus 29 = details: for MIC: read-out: Minimum Inhibiting Concentration (MIC)
Method: as §1, §2, §3, §4

Klebsiella 4 = details: for MIC: read-out: Minimum Inhibiting Concentration (MIC)
Method: as §1, §2, §3, §4

Citrobacter 118 = details: for MIC: read-out: Minimum Inhibiting Concentration (MIC)
Method: as §1, §2, §3, §4

Serratia 10 = details: 18 hours at 37° C, read-out: Minimum Inhibiting Concentration (MIC)
Method: as §1, §2, §3, §4

[1] = Staphylococcus 7, 18 hours at 37° C
[2] = Citrobacter 120, 18 hours at 37° C
[3] = Pseudomonas 19, 18 hours at 37° C
[4] = Escherichia 963, 18 hours at 37° C
[5] = Enterobacter 2653, 18 hours at 37° C
[6] = Enterobacter 041, 18 hours at 37° C
[7] = Staphylococcus 29, 18 hours at 37° C
[8] = Klebsiella 4, 18 hours at 37° C
[9] = Citrobacter 118, 18 hours at 37° C

Q: Which MIC (Staphylococcus 7; Staphylococcus, 7, 18 h) does the source give for CCn1cc(C(=O)O)c(=O)c2ccc(C)nc21 [NALIDIXIC ACID, nalidixic acid, reference compound] here?
A: Its MIC is > 25 µg/mL.

Q: What about the MIC (Citrobacter 120; Citrobacter, 120, 18 h) of the same compound?
A: Its MIC is 12.5 µg/mL (≈ 53.8 µM).

Q: What about the MIC (Pseudomonas 19; Pseudomonas, 19, 18 h) of the same compound?
A: The MIC was > 25 µg/mL.

Q: What about the MIC (Pseudomonas 22437) of the same compound?
A: The MIC was > 25 µg/mL.

Q: And the MIC (Escherichia 963; Escherichia, 963, 18 h)?
A: Its MIC is > 25 µg/mL.

Q: What about the MIC (Proteus 25; 18 h) of the same compound?
A: Its MIC is 12.5 µg/mL (≈ 53.8 µM).

Q: And the MIC (Enterobacter 2653; Enterobacter, 2653, 18 h)?
A: Its MIC is 1.56 µg/mL (≈ 6.72 µM).

Q: And the MIC (Serratia 9; Serratia, 9, 18 h)?
A: Its MIC is > 25 µg/mL.

Q: What about the MIC (Escherichia 15) of the same compound?
A: Its MIC is 3.12 µg/mL (≈ 13.4 µM).

Q: And the MIC (Proteus 966; 18 h)?
A: The MIC was > 25 µg/mL.

Q: What about the MIC (Enterobacter 041; Enterobacter, 041, 18 h) of the same compound?
A: The MIC was 3.12 µg/mL (≈ 13.4 µM).

Q: And the MIC (Staphylococcus 29; Staphylococcus, 29, 18 h)?
A: Its MIC is > 25 µg/mL.

Q: And the MIC (Klebsiella 4; Klebsiella, 4, 18 h)?
A: Its MIC is 3.12 µg/mL (≈ 13.4 µM).

Q: And the MIC (Citrobacter 118; Citrobacter, 118, 18 h)?
A: The MIC was 12.5 µg/mL (≈ 53.8 µM).

Q: With CC1Cn2cc(C(=O)O)c(=O)c3cc(F)c(Cl)c(c32)S1 (stereo not drawn) [reference compound] as the compound, how does the MIC (Staphylococcus 7; [1]) read?
A: Its MIC is 0.12 µg/mL (≈ 0.382 µM).

Q: What about the MIC (Citrobacter 120; [2]) of the same compound?
A: Its MIC is > 32 µg/mL.

Q: And the MIC (Pseudomonas 19; [3])?
A: The MIC was > 32 µg/mL.

Q: What about the MIC (Pseudomonas 22437) of the same compound?
A: Its MIC is > 32 µg/mL.

Q: And the MIC (Escherichia 963; [4])?
A: The MIC was 16 µg/mL (≈ 51 µM).

Q: And the MIC (Serratia 10)?
A: The MIC was 0.25 µg/mL (≈ 0.797 µM).

Q: What about the MIC (Proteus 25; Proteus 25, 18 hours at 37° C) of the same compound?
A: The MIC was > 32 µg/mL.

Q: What about the MIC (Enterobacter 2653; [5]) of the same compound?
A: Its MIC is 0.12 µg/mL (≈ 0.382 µM).

Q: And the MIC (Serratia 9; Serratia 9, 18 hours at 37° C)?
A: The MIC was > 32 µg/mL.

Q: And the MIC (Escherichia 15)?
A: The MIC was 0.25 µg/mL (≈ 0.797 µM).

Q: What about the MIC (Proteus 966; Proteus 966, 18 hours at 37° C) of the same compound?
A: The MIC was > 32 µg/mL.

Q: What about the MIC (Enterobacter 041; [6]) of the same compound?
A: The MIC was 0.12 µg/mL (≈ 0.382 µM).

Q: What about the MIC (Staphylococcus 29; [7]) of the same compound?
A: The MIC was 0.12 µg/mL (≈ 0.382 µM).

Q: And the MIC (Klebsiella 4; [8])?
A: Its MIC is 0.12 µg/mL (≈ 0.382 µM).

Q: What about the MIC (Citrobacter 118; [9]) of the same compound?
A: Its MIC is 1 µg/mL (≈ 3.19 µM).

Q: What does the source list for “ethyl 9-fluoro-10-chloro-2-methyl-7-oxo-2,3-dihydro-7H-pyrido[1,2,3-de][1,4]benzothiazine-1-sulphoxide-6-carboxylate [(II)]”?
A: Minimum Inhibiting Concentration (MIC) (Staphylococcus 7; [1]): 1 µg/mL; Minimum Inhibiting Concentration (MIC) (Citrobacter 120; [2]): 0.5 µg/mL; Minimum Inhibiting Concentration (MIC) (Pseudomonas 19; [3]): 16 µg/mL; Minimum Inhibiting Concentration (MIC) (Pseudomonas 22437): 16 µg/mL; Minimum Inhibiting Concentration (MIC) (Escherichia 963; [4]): 2 µg/mL; Minimum Inhibiting Concentration (MIC) (Proteus 25; Proteus 25, 18 hours at 37° C): 4 µg/mL; Minimum Inhibiting Concentration (MIC) (Enterobacter 2653; [5]): 0.25 µg/mL; Minimum Inhibiting Concentration (MIC) (Serratia 9; Serratia 9, 18 hours at 37° C): 8 µg/mL; Minimum Inhibiting Concentration (MIC) (Proteus 966; Proteus 966, 18 hours at 37° C): 4 µg/mL; Minimum Inhibiting Concentration (MIC) (Enterobacter 041; [6]): 0.12 µg/mL; Minimum Inhibiting Concentration (MIC) (Staphylococcus 29; [7]): 1 µg/mL; Minimum Inhibiting Concentration (MIC) (Klebsiella 4; [8]): 0.25 µg/mL; Minimum Inhibiting Concentration (MIC) (Citrobacter 118; [9]): 0.5 µg/mL
